Source: US10934302B1, “SHP2 phosphatase inhibitors and methods of use thereof” (Relay Therapeutics, Inc., priority 2018, dated 2021)

Molecular target: SHP2 (Homo sapiens (Human), UniProt Q06124)
Experiment: SHP2 allosteric inhibition assay (DiFMUP prompt fluorescence)
Assay type: biochemical
Settings: 0.25 nM SHP2 activated with 0.5 μM peptide IRS1_pY1172(dPEG8)pY1222; substrate DiFMUP

Row | SMILES | IC50 [nM]
1 | N[C@@H]1c2ccccc2CC12CCN(c1nccnc1CO)CC2 [Example 120, {3-[(3S)-3-amino-1,3-dihydrospiro[indene-2,4′-piperidin]-1′-yl]pyrazin-2-yl}methanol] | ≤ 50
2 | Nc1nccc(Sc2ccc(N3CCC4(CC3)Oc3ccc(F)cc3[C@H]4N)cn2)c1Cl [Example 225] | > 10000
3 | Nc1nccc(Sc2cnc(N3CCC4(CC3)Cc3ccccc3[C@H]4N)cn2)c1Cl [Example 63] | 50 to 1000
4 | Cc1nc2c(C#N)n[nH]c2nc1N1CCC2(CC1)Cc1ccccc1[C@H]2N [Example 163, 6-[(3S)-3-amino-1,3-dihydrospiro[indene-2,4′-piperidin]-1′-yl]-5-methyl-1H-pyrazolo[3,4-b]pyrazine-3-carbonitrile] | 1000 to 10000
5 | Cn1c(N2CCC3(CC2)Cc2ccccc2[C@H]3N)nc2[nH]nc(Sc3cccc(Cl)c3Cl)c2c1=O [Example 178] | > 10000
6 | Cc1nccc(Oc2n[nH]c3nc(N4CCC5(CC4)Cc4ccccc4[C@H]5N)cnc23)c1Cl [Example 127] | 50 to 1000
7 | COc1cccc(-n2nccc2C(=O)N2CCC3(CC2)Cc2ccccc2[C@H]3N)c1 [Example 288, (1S)-1′-[1-(3-methoxyphenyl)-1H-pyrazole-5-carbonyl]-1,3-dihydrospiro[indene-2,4′-piperidin]-1-amine] | > 10000
8 | N[C@@H]1c2ccccc2CC12CCN(c1cnc(OCc3cccc4cccnc34)cn1)CC2 [Example 198] | > 10000
9 | N[C@@H]1c2ccccc2CC12CCN(c1cnc(S[C@@H]3CCOC3)cn1)CC2 [Example 235] | > 10000
10 | N[C@@H]1c2ccccc2CC12CCN(c1nccn3ccnc13)CC2 [Example 180] | 1000 to 10000
11 | N[C@@H]1c2ccccc2CC12CCN(c1cnc3c(-c4ccnc(Cl)c4F)n[nH]c3n1)CC2 [Example 67, (3S)-1′-[3-(2-chloro-3-fluoropyridin-4-yl)-1H-pyrazolo[3,4-b]pyrazin-6-yl]-1,3-dihydrospiro[indene-2,4′-piperidin]-3-amine] | ≤ 50
12 | Cn1cc(-c2ccc3c(n2)CCCN3c2n[nH]c3nc(N4CCC5(CC4)Cc4cccc(F)c4[C@H]5N)cnc23)cn1 [Example 48] | ≤ 50
13 | CS(=O)(=O)c1cccc2c1CCCN2c1n[nH]c2nc(N3CCC4(CC3)Cc3cccc(F)c3[C@H]4N)cnc12 [Example 59] | ≤ 50
14 | N[C@@H]1c2ccccc2CC12CCN(c1ncc(-c3ccccc3Cl)s1)CC2 [Example 145, (S)-1′-(5-(2-chlorophenyl)thiazol-2-yl)-1,3-dihydrospiro[indene-2,4′-piperidin]-1-amine] | ≤ 50
15 | N[C@@H]1c2ccccc2CC12CCN(c1cnc(N3CCCC3c3ccccc3)cn1)CC2 (stereo in doubt) [Example 164, (3S)-1′-{5-[(2S)-2-phenylpyrrolidin-1-yl]pyrazin-2-yl}-1,3-dihydrospiro[indene-2,4′-piperidin]-3-amine] | ≤ 50
16 | C[C@@H](C(=O)N1CCC2(CC1)Cc1ccccc1[C@H]2N)c1ccc(F)cc1 (single isomer, unassigned) [Example 291] | > 10000
17 | CN(c1ccnc(N)c1)c1n[nH]c2nc(N3CCC4(CC3)Cc3ccccc3[C@H]4N)cnc12 [Example 148, (S)—N4-(6-(1-amino-1,3-dihydrospiro[indene-2,4′-piperidin]-1′-yl)-1H-pyrazolo[3,4-b]pyrazin-3-yl)-N4-methylpyridine-2,4-diamine] | ≤ 50
18 | COc1cccc(-n2ccc(C(=O)N3CCC4(CC3)Cc3ccccc3[C@H]4N)n2)c1 [Example 287, (1S)-1′-[1-(3-methoxyphenyl)-1H-pyrazole-3-carbonyl]-1,3-dihydrospiro[indene-2,4′-piperidin]-1-amine] | ≤ 50
19 | N[C@@H]1c2ccccc2CC12CCN(C(=O)c1csc(N3CCCCC3)n1)CC2 [Example 204] | ≤ 50
20 | N[C@@H]1c2ccccc2CC12CCN(c1cnc(SC3CCCCC3)cn1)CC2 [Example 233, (3S)-1′-[5-(cyclohexylsulfanyl)pyrazin-2-yl]-1,3-dihydrospiro[indene-2,4′-piperidin]-3-amine] | ≤ 50
21 | N[C@@H]1c2ccccc2CC12CCN(c1cnc(OC3CCCC3)cn1)CC2 [Example 251, (3S)-1′-[5-(cyclopentyloxy)pyrazin-2-yl]-1,3-dihydrospiro[indene-2,4′-piperidin]-3-amine] | > 10000
22 | NC1C2CC2CC12CCN(c1cnc3c(N4CCCc5ncccc54)n[nH]c3n1)CC2 (stereo not shown) [Example 7, 1′-(3-(3,4-dihydro-1,5-naphthyridin-1(2H)-yl)-1H-pyrazolo[3,4-b]pyrazin-6-yl)spiro[bicyclo[3.1.0]hexane-3,4′-piperidin]-2-amine] | ≤ 50
23 | C[C@@H](O)c1nc2c(N3CCCc4ncccc43)n[nH]c2nc1N1CCC2(CC1)Cc1ccccc1[C@H]2N (single isomer, unassigned) [Example 141] | ≤ 50
24 | N#Cc1ccc2c(c1)N([C@H]1C[C@@H](O)C1)CCN2c1n[nH]c2nc(N3CCC4(CC3)Cc3ccccc3C4N)cnc12 (stereo partly shown) [Example 34] | ≤ 50

Continued, values first:

Row | IC50 [nM] | SMILES
25 | ≤ 50 | NC1c2ccccc2CC12CCN(c1nc3[nH]nc(N4CCCc5ncccc54)c3nc1CO)CC2 (stereo not shown) [Example 99]
26 | ≤ 50 | N#Cc1ccc2c(c1)N(C1(C#N)CC1)CCN2c1n[nH]c2nc(N3CCC4(CC3)Cc3ccccc3[C@H]4N)cnc12 [Example 39]
27 | ≤ 50 | Cn1c(N2CCC3(CC2)Cc2ccccc2[C@H]3N)ccc(N2CCCc3ccccc32)c1=O [Example 206]
28 | ≤ 50 | CNC(=O)c1n[nH]c2nc(N3CCC4(CC3)Cc3ccccc3[C@H]4N)c(C)nc12 [Example 125, 6-[(3S)-3-amino-1,3-dihydrospiro[indene-2,4′-piperidin]-1′-yl]-N,5-dimethyl-1H-pyrazolo[3,4-b]pyrazine-3-carboxamide]
29 | ≤ 50 | CN(C)C(=O)c1ccc2c(c1)[C@H](N)C1(CCN(c3cnc4c(N5CCCc6ncccc65)n[nH]c4n3)CC1)C2 [Example 28]
30 | ≤ 50 | CS(=O)(=O)c1cccc2c1CCCN2c1n[nH]c2nc(N3CCC4(CC3)Cc3c(F)cccc3[C@H]4N)cnc12 [Example 56]
31 | ≤ 50 | Cn1ccc(Sc2cnc(N3CCC4(CC3)Cc3ccccc3[C@H]4N)cn2)c(Cl)c1=O [Example 132, 4-({5-[(3S)-3-amino-1,3-dihydrospiro[indene-2,4′-piperidin]-1′-yl]pyrazin-2-yl}sulfanyl)-3-chloro-1-methyl-1,2-dihydropyridin-2-one]
32 | ≤ 50 | Cc1nc(N2CCC3(CC2)Cc2c(F)cccc2[C@H]3N)c(CO)nc1-c1cccc(Cl)c1Cl [Example 269, (S)-(3-(1-amino-4-fluoro-1,3-dihydrospiro[indene-2,4′-piperidin]-1′-yl)-6-(2,3-dichlorophenyl)-5-methylpyrazin-2-yl)methanol]
33 | ≤ 50 | Nc1nccc(Sc2cnc(N3CCC4(CC3)Cc3ccccc3[C@H]4N)cn2)c1Cl [Example 81, (S)-1′-(5-((2-amino-3-chloropyridin-4-yl)thio)pyrazin-2-yl)-1,3-dihydrospiro[indene-2,4′-piperidin]-1-amine]
34 | ≤ 50 | N[C@@H]1c2ccccc2CC12CCN(c1cnc(N3CCCc4ncccc43)cn1)CC2 [Example 146, (3S)-1′-[5-(1,2,3,4-tetrahydro-1,5-naphthyridin-1-yl)pyrazin-2-yl]-1,3-dihydrospiro[indene-2,4′-piperidin]-3-amine]
35 | ≤ 50 | Cc1cc(N2CCC3(CC2)Cc2ccccc2[C@H]3N)cnc1Sc1ccnc(N)c1Cl [Example 219]
36 | ≤ 50 | Nc1nccc(-c2n[nH]c3nc(N4CCC5(CC4)Cc4ccccc4[C@@H]5N)cnc23)c1F [Example 77, (R)-1′-(3-(2-amino-3-fluoropyridin-4-yl)-1H-pyrazolo[3,4-b]pyrazin-6-yl)-1,3-dihydrospiro[indene-2,4′-piperidin]-1-amine]
37 | ≤ 50 | Nc1nccc(Sc2ccc(N3CCC4(CC3)Cc3ccccc3[C@H]4N)c(CO)n2)c1Cl [Example 258, {3-[(3S)-3-amino-1,3-dihydrospiro[indene-2,4′-piperidin]-1′-yl]-6-[(2-amino-3-chloropyridin-4-yl)sulfanyl]pyridin-2-yl}methanol]
38 | ≤ 50 | Cn1cc(-c2ccc3c(n2)CCCN3c2n[nH]c3nc(N4CCC5(CC4)Cc4c(F)cccc4[C@H]5N)cnc23)cn1 [Example 42]
39 | ≤ 50 | Cc1nc(N2CCC3(CC2)Cc2ccccc2[C@H]3N)c(C)nc1Sc1ccnc(N)c1Cl [Example 215]
40 | ≤ 50 | N[C@@H]1c2ccccc2CC12CCN(c1cnc(Sc3cc[nH]c(=O)c3Cl)cn1)CC2 [Example 131, 4-({5-[(3S)-3-amino-1,3-dihydrospiro[indene-2,4′-piperidin]-1′-yl]pyrazin-2-yl}sulfanyl)-3-chloro-1,2-dihydropyridin-2-one]
41 | ≤ 50 | N[C@@H]1c2ccccc2CC12CCN(c1cnc(SCc3cccc(Cl)n3)cn1)CC2 [Example 263, (S)-1′-(5-(((6-chloropyridin-2-yl)methyl)thio)pyrazin-2-yl)-1,3-dihydrospiro[indene-2,4′-piperidin]-1-amine]
42 | ≤ 50 | N[C@@H]1c2ccccc2CC12CCN(c1cnc3c(C#Cc4ccccc4)n[nH]c3n1)CC2 [Example 143, (S)-1′-(3-(phenylethynyl)-1H-pyrazolo[3,4-b]pyrazin-6-yl)-1,3-dihydrospiro[indene-2,4′-piperidin]-1-amine]
43 | ≤ 50 | Cc1nc2c(N3CCCc4ncccc43)n[nH]c2nc1N1CCC2(CC1)Cc1ccccc1[C@H]2N [Example 124, (S)-1′-(3-(3,4-dihydro-1,5-naphthyridin-1(2H)-yl)-5-methyl-1H-pyrazolo[3,4-b]pyrazin-6-yl)-1,3-dihydrospiro[indene-2,4′-piperidin]-1-amine]
44 | ≤ 50 | N#Cc1cccc2c1CC1(CCN(c3cnc4c(N5CCCc6ncccc65)n[nH]c4n3)CC1)[C@@H]2N [Example 117, (S)-1-amino-1′-(3-(3,4-dihydro-1,5-naphthyridin-1(2H)-yl)-1H-pyrazolo[3,4-b]pyrazin-6-yl)-1,3-dihydrospiro[indene-2,4′-piperidine]-4-carbonitrile]
45 | ≤ 50 | N[C@H]1c2ccccc2CC12CN(c1cnc3c(N4CCCc5ncccc54)n[nH]c3n1)C2 [Example 114]
46 | ≤ 50 | Nc1nccc(Oc2n[nH]c3nc(N4CCC5(CC4)Cc4ccccc4[C@H]5N)cnc23)c1Cl (single isomer, unassigned) [Example 137]
